# Experimental data published in US20090227503A1, “PARATHYROID HORMONE TREATMENT FOR ENHANCED ALLOGRAFT AND TISSUE-ENGINEERED RECONSTRUCTION OF BONE DEFECTS” (UNIVERSITY OF ROCHESTER, priority 2008, published 2009).
# Legend:
# [1] = system: contralateral intact femurs; assay: Torsion testing of contralateral intact femurs (Example 4); type: in vivo, mice
# Experimental: (§1) Four-mm long bone allografts were harvested from donor mice, and were processed and implanted into intecalary defects 195 in the femur of other mice and secured in place using a stainless steel intramedullary pin 190, as shown in FIG. 13. One week after surgery, daily injections of 40 μg/kg hrPTH (1-34) (Lilly, Inc., Indianapolis, Ind.) were initiated in half of the mice, while the others received injections of saline control. Weekly x-rays were taken to monitor progression (Faxitron X-Ray LLC, Wheeling, Ill.).
# (§2) One cohort of the study groups used 14 mice from each treatment (PTH and control) for imaging and mechanical material testing and were sacrificed 6 weeks after surgery. Each femur was harvested by disarticulating the hip and knee and removing the intramedullary stainless-steel pin. Specimens were moistened with saline and frozen at −20° C. until thawed for micro-CT imaging and torsion testing. Specimens were scanned at […] isotropic resolution using the Scanco VivaCT 40 (Scanco Medical AG, Bassersdorf, Switzerland). From these 3D images, the graft and callus bone volumes (BVGraft, BVCallus) were measured by manual segmentation, followed by standardized thresholding at a grayscale corresponding to 750 mgHA/cm^3. The cross-sectional polar moment of inertias (PMI) were computed for each slice throughout the grafted region and the maximum, minimum and average PMI (PMIMax, PMIMin, PMIAve) were investigated to determine their contribution to the biomechanics of the grafted femurs.
# (§3) The Union Ratio was also calculated. The Union Ratio measures the graft surface area upon which mineralized callus has formed. If the voxels adjacent to the graft surface are boney callus, the area of that region of the graft is measured and normalized to the total graft surface area. Imaging data (not shown) indicated the bare surface of the graft in blue, with regions of union to the callus depicted as red. Each half (proximal and distal) of the graft was evaluated separately and the lesser ratio of union area to total graft surface area was given as the Union Ratio for that specimen. Callus formation that bridged from host-to-host over the graft was determined by evaluating serial axial cross sections from micro-CT images and given a binary result. These samples were then mechanically tested in torsion. Yield torque (TYield), ultimate torque (TUlt), torsional rigidity (TR), toughness (or work to failure) and the twist at ultimate torque were determined for each specimen. Finally, the mode of failure for each specimen was determined using an x-ray image analysis (not shown).
# grafted femurs = assay: Torsion testing of grafted femurs (Example 4); type: in vivo, mice
# Experimental: as §1, §2, §3
# femoral allograft [2] = assay: Mouse femoral allograft, micro-CT of callus (Example 1); type: in vivo, C57B1/6 mice
# Experimental: Femoral allograft surgeries were performed on C57B1/6 mice as previously described. Briefly, a 4 mm mid-diaphyseal segment was removed by osteotomizing the femur and a processed allograft was implanted and secured in place with a stainless steel intramedullary (IM) pin. After 1 week, 8 mice were given daily subcutaneously injections of 0.4 mg/kg PTH (1-34) (Forteo, Eli Lilly and Company, Indianapolis, Ind.) while 5 mice with grafts were given the same volume of saline daily, serving as controls. Animals were sacrificed 6 weeks after surgery, the grafted femurs were carefully dissected and cleaned without disrupting the callus, and the IM pin was carefully removed. The femurs were then stored frozen at −80° C. until evaluation. Specimens were scanned at 10.5 micron isotropic resolution using a Scanco VivaCT 40 (Scanco Medical AG, Bassersdorf, Switzerland). Callus bone volume adjacent to the graft was manually segmented from all axial slices that contained grafted bone. The mineralized callus volume, callus bone mineral density (BMD) and total mineral content (BMC) were determined.
# [3] = system: intact contralateral femurs; assay: Micro-CT of intact contralateral femurs (Example 4); type: in vivo, mice; settings: 6 weeks
# femoral allograft [4] = assay: Mouse femoral allograft, torsion testing of grafted femurs (Example 1); type: in vivo, C57B1/6 mice
# Experimental: Femoral allograft surgeries were performed on C57B1/6 mice as previously described. Briefly, a 4 mm mid-diaphyseal segment was removed by osteotomizing the femur and a processed allograft was implanted and secured in place with a stainless steel intramedullary (IM) pin. After 1 week, 8 mice were given daily subcutaneously injections of 0.4 mg/kg PTH (1-34) (Forteo, Eli Lilly and Company, Indianapolis, Ind.) while 5 mice with grafts were given the same volume of saline daily, serving as controls. Animals were sacrificed 6 weeks after surgery, the grafted femurs were carefully dissected and cleaned without disrupting the callus, and the IM pin was carefully removed. The femurs were then stored frozen at −80° C. until evaluation. After imaging, the ends of the femurs were cemented into 6.35 mm square aluminum tubes using PMMA in a custom jig to ensure axial alignment and maintain a gage length of 7.3±0.8 mm. Samples were then mounted on an EnduraTec TestBench™ system with a 200 N·mm torque cell (Bose Corp., Minnetonka, Minn.) and tested in torsion at a rate of […] until failure to determine the torsional stiffness, ultimate torque, ultimate rotation, and strain energy to failure. Mode of Failure was determined by x-ray after testing. As described previously (Reynolds D G, et al; J. Biomech. 2007; E-pub May 22) the mode of failure can be categorized by location of the failure. “Pre-union” failures occur at the graft-host junction resulting in an intact graft that simply pulled out from the callus. “Early union” failures occur near the graft-host junction, but involve partial fragmentation of the graft or host bone.
# [5] = PTH Graft, 6 weeks after implantation, mean
# [6] = 0.4 mg/kg PTH (1-34) s.c. daily from week 1, 6 weeks after surgery, Mean (Standard Deviation)
# [7] = vs saline, 6 weeks after surgery
# [8] = PTH contralateral femur, mean, N = 8
# [9] = 0.4 mg/kg PTH (1-34) s.c. daily, 6 weeks after surgery, Mean (Standard Deviation)
# [10] = of 8 PTH treated mice, all 5 controls pre-union
compound,measurement,setting,value
"CC[C@H](C)[C@H](NC(=O)[C@H](CCC(=O)O)NC(=O)[C@H](CO)NC(=O)[C@@H](NC(=O)[C@@H](N)CO)C(C)C)C(=O)N[C@@H](CCC(N)=O)C(=O)N[C@@H](CC(C)C)C(=O)N[C@@H](CCSC)C(=O)N[C@@H](Cc1cnc[nH]1)C(=O)N[C@@H](CC(N)=O)C(=O)N[C@@H](CC(C)C)C(=O)NCC(=O)N[C@@H](CCCCN)C(=O)N[C@@H](Cc1cnc[nH]1)C(=O)N[C@@H](CC(C)C)C(=O)N[C@@H](CC(N)=O)C(=O)N[C@@H](CO)C(=O)N[C@@H](CCSC)C(=O)N[C@@H](CCC(=O)O)C(=O)N[C@@H](CCCN=C(N)N)C(=O)N[C@H](C(=O)N[C@@H](CCC(=O)O)C(=O)N[C@@H](Cc1c[nH]c2ccccc12)C(=O)N[C@@H](CC(C)C)C(=O)N[C@@H](CCCN=C(N)N)C(=O)N[C@@H](CCCCN)C(=O)N[C@@H](CCCCN)C(=O)N[C@@H](CC(C)C)C(=O)N[C@@H](CCC(N)=O)C(=O)N[C@@H](CC(=O)O)C(=O)N[C@H](C(=O)N[C@@H](Cc1cnc[nH]1)C(=O)N[C@@H](CC(N)=O)C(=O)N[C@@H](Cc1ccccc1)C(=O)O)C(C)C)C(C)C [PTH, PTH (1-34)]",torsional mechanics of intact contralateral femurs,[1]; 6 weeks of PTH treatment,did not show a significant increase in torsional mechanics
same,TR,"[1]; PTH Contra, 6 weeks, mean",1284 N*mm^2/Rad
same,Tult,"[1]; PTH Contra, 6 weeks, mean",22.6 N*mm
same,Twist at Tult,"[1]; PTH Contra, 6 weeks, mean",0.029 Rad/mm
same,Tyield,"[1]; PTH Contra, 6 weeks, mean",15.1 N*mm
same,Work to TUlt,"[1]; PTH Contra, 6 weeks, mean",0.401 Nmm*Rad/mm
same,Work to TYield,"[1]; PTH Contra, 6 weeks, mean",0.151 Nmm*Rad/mm
same,Grafted femur mode of failure after torsion testing: Early Union (number of femurs),grafted femurs; 6 weeks,3
same,Grafted femur mode of failure after torsion testing: Mature Union (number of femurs),grafted femurs; 6 weeks,3
same,Grafted femur mode of failure after torsion testing: Pre-Union (number of femurs),grafted femurs; 6 weeks,8
same,rate of twist at TUlt as fraction of control grafted specimens,grafted femurs; 6 weeks,⅓
same,TR,grafted femurs; [5],1175 N*mm^2/Rad
same,Tult,grafted femurs; [5],13.2 N*mm
same,Twist at Tult,grafted femurs; [5],0.020 Rad/mm
same,Tyield,grafted femurs; [5],10.5 N*mm
same,Work to TUlt,grafted femurs; [5],0.167 Nmm*Rad/mm
same,Work to TYield,grafted femurs; [5],0.0687 Nmm*Rad/mm
same,specimens that failed in a manner not simply graft-pullout from the host,"grafted femurs; saline only 3, not statistically significant",Six
same,"Yield Torque, greater by","grafted femurs; vs saline grafted femurs, 6 weeks",72%
same,"Ultimate Torque, greater by","grafted femurs; vs saline grafted femurs, 6 weeks, not significant",23%
same,torsional rigidity of grafted femurs,"grafted femurs; vs saline, 6 weeks",doubled
same,Callus BMC,femoral allograft [2]; [6],2.77 (0.53) mg HA
same,Callus BMD,femoral allograft [2]; [6],665 (17) mg HA/cm^3
same,Callus Bone Volume,femoral allograft [2]; [6],4.17 (0.80) mm^3
same,samples with callus bridging the graft from host to host,"femoral allograft [2]; 6 weeks after surgery, saline 20%",63%
same,increase in callus bone volume,femoral allograft [2]; [7],1.9 fold
same,net increase in total callus mineral content,femoral allograft [2]; [7],60%
same,reduction in callus BMD,femoral allograft [2]; [7],13%
same,contralateral intact femur's diaphyseal BMCPTH:BMCSaline,[3],1.17
same,A-P Periosteal Diameter,[3]; [8],1.30 mm
same,Cortical Bone Density,[3]; [8],1179 mgHA/cc
same,Cortical Thickness,[3]; [8],0.199 mm
same,Cross-Sectional Area,[3]; [8],0.82 mm²
same,M-L Periosteal Diameter,[3]; [8],1.85 mm
same,Polar Moment of Inertia,[3]; [8],0.36 mm^4
same,Energy to failure,femoral allograft [4]; [9],0.25 (0.31)
same,Normalized Rotation at TUlt,femoral allograft [4]; [9],0.97 (0.23) deg/mm gage length
same,Ultimate Torque,femoral allograft [4]; [9],13.5 (4.7) N*mm
same,normalized rotation at peak torque,femoral allograft [4]; 6 weeks,0.97 degrees per mm of gage length
same,stiffness as share of normal unoperated femur properties,femoral allograft [4]; after 6 weeks of healing,~120%
same,strength as share of normal unoperated femur properties,femoral allograft [4]; after 6 weeks of healing,~67%
same,"specimens failing in ""early union"" mode",femoral allograft [4]; [10],2
same,"specimens with ""mature union"" failure",femoral allograft [4]; [10],1
same,enhancement in ultimate torque,"femoral allograft [4]; vs saline, 6 weeks",1.65 fold
same,stiffness relative to saline (times stiffer),"femoral allograft [4]; vs saline, 6 weeks",3.3 times
